Source: US20240425518A1, “N-MACROCYCLIC AMIDE COMPOUNDS, PREPARATION METHODS THEREOF AND APPLICATIONS THEREOF AS MEDICAMENTS” (Chengdu FANXI Biopharma Co., Ltd., priority 2023, published 2024)

What was measured:
Ab1 (h) = biological target: T1, Ab1 (h) (Homo sapiens, UniProt P00519); assay: Radioisotope labeling kinase assay (Eurofins), Ab1; type: biochemical; settings: for activity at 1 µM: 1 μM compound, read-out: Inhibitory activity per unit concentration/Activity % Ab1 (h)
T1 construct: purchased Eurofins
Description: (§1) An activity to a human recombinant protein kinase of a series of compounds was determined by a radioisotope labeling method, which was provided by Eurofins Company. A compound to be detected was mixed with a corresponding protein kinase buffer (20 mM propyl sulfonate (MOPS, […].), 1 mM EDTA, 0.10 β-mercaptoethanol, 0.010 Brij-35, […], and 1 mg/mL BSA), the mixture was added into a reaction system (100 μM reaction substrate […], 8 mM MOPS with a pH value of 7.0, 10 mM MgAcetate, 0.2 mM EDTA, and a certain concentration of γ-^33P-ATP). After adding an MgATP composite solution, the reaction was started at room temperature for 40 minutes, and the reaction was terminated by adding 5 μl of […] solution. Then, 10 μl of reaction solution was dropwise added onto a filter and washed with 75 mM phosphoric acid solution for three times, 5 minutes each time, then washed with methanol once again, and dried and subjected to scintillation counting.

BTK (h) = biological target: T2, BTK (h) (Homo sapiens, UniProt Q06187); assay: Radioisotope labeling kinase assay (Eurofins), BTK; type: biochemical; settings: for activity at 1 µM: 1 μM compound, read-out: Inhibitory activity per unit concentration/Activity % BTK (h)
T2 construct: purchased Eurofins
Description: as §1

Flt3 (D835Y) (h) = biological target: T3, Flt3 (D835Y) (h) (Homo sapiens, UniProt P36888, D835Y); assay: Radioisotope labeling kinase assay (Eurofins), Flt3 (D835Y); type: biochemical; settings: for activity at 1 µM: 1 μM compound, read-out: Inhibitory activity per unit concentration/Activity % Flt3 (D835Y) (h)
T3 construct: purchased Eurofins
T3 sequence (P36888 27-993 D835Y): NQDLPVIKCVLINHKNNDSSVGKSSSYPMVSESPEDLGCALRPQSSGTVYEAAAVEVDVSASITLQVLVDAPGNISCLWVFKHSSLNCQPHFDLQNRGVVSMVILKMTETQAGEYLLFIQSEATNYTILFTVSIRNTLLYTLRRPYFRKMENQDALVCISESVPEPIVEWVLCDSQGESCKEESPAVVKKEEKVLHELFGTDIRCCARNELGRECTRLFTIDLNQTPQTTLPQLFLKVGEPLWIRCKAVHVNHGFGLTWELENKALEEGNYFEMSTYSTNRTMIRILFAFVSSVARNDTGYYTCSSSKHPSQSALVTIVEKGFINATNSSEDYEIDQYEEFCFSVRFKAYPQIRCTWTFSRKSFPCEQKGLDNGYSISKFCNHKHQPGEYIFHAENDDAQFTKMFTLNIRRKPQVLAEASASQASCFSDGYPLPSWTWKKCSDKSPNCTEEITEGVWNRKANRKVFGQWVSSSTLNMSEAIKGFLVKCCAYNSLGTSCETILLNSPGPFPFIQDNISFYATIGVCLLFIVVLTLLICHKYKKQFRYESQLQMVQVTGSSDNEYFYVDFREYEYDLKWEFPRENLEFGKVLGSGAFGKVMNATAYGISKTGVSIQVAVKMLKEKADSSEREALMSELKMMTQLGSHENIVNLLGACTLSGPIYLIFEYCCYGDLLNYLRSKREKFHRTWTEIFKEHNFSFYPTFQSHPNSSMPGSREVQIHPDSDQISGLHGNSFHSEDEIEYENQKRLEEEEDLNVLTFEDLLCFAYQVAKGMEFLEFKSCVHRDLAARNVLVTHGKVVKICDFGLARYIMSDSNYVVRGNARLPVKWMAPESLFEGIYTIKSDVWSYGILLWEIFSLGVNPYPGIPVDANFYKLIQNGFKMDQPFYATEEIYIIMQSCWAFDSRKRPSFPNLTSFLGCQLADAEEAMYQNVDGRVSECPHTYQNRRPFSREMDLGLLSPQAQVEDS
Description: as §1

JAK1 (h) = biological target: T4, JAK1 (h) (Homo sapiens, UniProt P23458); assay: Radioisotope labeling kinase assay (Eurofins), JAK1; type: biochemical
T4 construct: purchased Eurofins
Description: as §1

EGFR (T790M, L858R) (h) = biological target: T5, EGFR (T790M, L858R) (h) (Homo sapiens, UniProt P00533, L858R/T790M); assay: Radioisotope labeling kinase assay (Eurofins), EGFR (T790M, L858R); type: biochemical
T5 construct: purchased Eurofins
Description: as §1

KDR (h) = biological target: T6, KDR (h) (Homo sapiens, UniProt P35968); assay: Radioisotope labeling kinase assay (Eurofins), KDR; type: biochemical
T6 construct: purchased Eurofins
Description: as §1

Ret (h) = biological target: T7, Ret (h) (Homo sapiens, UniProt P07949); assay: Radioisotope labeling kinase assay (Eurofins), Ret; type: biochemical
T7 construct: purchased Eurofins
Description: as §1

[1] = tested on: HL-60 Human acute myelogenous leukemia; assay: MTT cell proliferation inhibition, HL-60; type: cell-based; settings: HL-60, 72 hours
Description: (§2) Human cancer cells were purchased from ATCC. The cells were cultured in a culture medium according to the work instruction of ATCC. A dose-response curve was drawn by XL-fitting to determine an IC50 value of a compound. […] Cell proliferation inhibition could be detected by a MTT method (3-(4,5-Dimethylthiazol-2-yl)-2,5-diphenyltetrazolium bromide, and MTT; and 3-(4,5-dimethyl thiazole-2)-2,5-diphenyltertazolium bromide, and thiazolyl blue).
(§3) The cells were cultured in a culture dish first, and the cells in a logarithmic growth phase were inoculated into a 96-well plate (3,000 to 5,000 adherent cells/well, 10,000 to 30,000 suspended cells/well) according to a specific number, with 100 microliters per well, and then cultured in an incubator of 5% CO2 and 37° C. […] An absorbance of a general control group should be a normal value between 0.8 and 1.2. After obtaining absorbance data, a change curve of an inhibition rate was fitted by GraphPad Prism6.03 software and an IC50 value was calculated.
(§4) Calculation of drug inhibition rate: relative cell proliferation inhibition rate=[(control group A570−experimental group A570)/control group […], wherein A570 represented the absorbance at 570 nm.

[2] = tested on: K562 Human acute myelogenous leukemia; assay: MTT cell proliferation inhibition, K562; type: cell-based; settings: K562, 72 hours
Description: as §2, §3, §4

[3] = tested on: RPMI 8226 Human myeloma cells; assay: MTT cell proliferation inhibition, RPMI 8226; type: cell-based; settings: RPMI 8226, 72 hours
Description: as §2, §3, §4

[4] = tested on: TT Human medullary thyroid cancer; assay: MTT cell proliferation inhibition, TT; type: cell-based; settings: 72 hours
Description: as §2, §3, §4

[5] = tested on: HT1080 Human fibrosarcoma cells; assay: MTT cell proliferation inhibition, HT1080; type: cell-based; settings: HT-1080, HT1080, 72 hours
Description: as §2, §3, §4

[6] = tested on: Aspc-1 Human pancreatic cancer cells; assay: MTT cell proliferation inhibition, Aspc-1; type: cell-based; settings: ASPC1, Aspc-1, 72 hours
Description: as §2, §3, §4

T7 sequence (P07949 29-1114): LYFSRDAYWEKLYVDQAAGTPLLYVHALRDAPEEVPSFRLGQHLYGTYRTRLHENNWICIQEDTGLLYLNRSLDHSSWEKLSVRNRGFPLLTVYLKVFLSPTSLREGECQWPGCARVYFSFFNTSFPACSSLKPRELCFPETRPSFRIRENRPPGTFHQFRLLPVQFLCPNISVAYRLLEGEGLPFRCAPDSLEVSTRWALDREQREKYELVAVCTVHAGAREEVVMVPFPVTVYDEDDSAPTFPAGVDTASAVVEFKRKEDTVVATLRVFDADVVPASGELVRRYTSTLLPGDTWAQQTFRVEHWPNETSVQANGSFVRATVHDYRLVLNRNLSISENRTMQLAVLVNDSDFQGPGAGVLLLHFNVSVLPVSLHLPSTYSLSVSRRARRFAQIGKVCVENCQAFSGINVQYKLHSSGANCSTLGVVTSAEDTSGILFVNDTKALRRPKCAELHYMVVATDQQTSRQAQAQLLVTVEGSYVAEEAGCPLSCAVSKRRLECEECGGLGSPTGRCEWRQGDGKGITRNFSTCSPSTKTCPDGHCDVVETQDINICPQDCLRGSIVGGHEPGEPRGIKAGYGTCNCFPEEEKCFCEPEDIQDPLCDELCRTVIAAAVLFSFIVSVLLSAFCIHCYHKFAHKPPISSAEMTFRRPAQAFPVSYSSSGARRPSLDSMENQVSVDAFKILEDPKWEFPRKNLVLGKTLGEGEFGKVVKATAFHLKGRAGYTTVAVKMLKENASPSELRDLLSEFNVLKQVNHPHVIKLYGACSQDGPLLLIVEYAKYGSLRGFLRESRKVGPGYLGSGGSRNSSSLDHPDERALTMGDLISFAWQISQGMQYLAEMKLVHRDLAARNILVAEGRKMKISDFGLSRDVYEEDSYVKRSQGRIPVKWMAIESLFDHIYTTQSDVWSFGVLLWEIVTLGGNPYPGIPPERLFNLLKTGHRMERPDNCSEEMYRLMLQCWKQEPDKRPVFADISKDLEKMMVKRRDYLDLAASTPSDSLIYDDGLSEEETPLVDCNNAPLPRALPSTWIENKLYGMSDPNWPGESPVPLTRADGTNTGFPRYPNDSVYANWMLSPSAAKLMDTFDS
T4 sequence (P23458 whole entry): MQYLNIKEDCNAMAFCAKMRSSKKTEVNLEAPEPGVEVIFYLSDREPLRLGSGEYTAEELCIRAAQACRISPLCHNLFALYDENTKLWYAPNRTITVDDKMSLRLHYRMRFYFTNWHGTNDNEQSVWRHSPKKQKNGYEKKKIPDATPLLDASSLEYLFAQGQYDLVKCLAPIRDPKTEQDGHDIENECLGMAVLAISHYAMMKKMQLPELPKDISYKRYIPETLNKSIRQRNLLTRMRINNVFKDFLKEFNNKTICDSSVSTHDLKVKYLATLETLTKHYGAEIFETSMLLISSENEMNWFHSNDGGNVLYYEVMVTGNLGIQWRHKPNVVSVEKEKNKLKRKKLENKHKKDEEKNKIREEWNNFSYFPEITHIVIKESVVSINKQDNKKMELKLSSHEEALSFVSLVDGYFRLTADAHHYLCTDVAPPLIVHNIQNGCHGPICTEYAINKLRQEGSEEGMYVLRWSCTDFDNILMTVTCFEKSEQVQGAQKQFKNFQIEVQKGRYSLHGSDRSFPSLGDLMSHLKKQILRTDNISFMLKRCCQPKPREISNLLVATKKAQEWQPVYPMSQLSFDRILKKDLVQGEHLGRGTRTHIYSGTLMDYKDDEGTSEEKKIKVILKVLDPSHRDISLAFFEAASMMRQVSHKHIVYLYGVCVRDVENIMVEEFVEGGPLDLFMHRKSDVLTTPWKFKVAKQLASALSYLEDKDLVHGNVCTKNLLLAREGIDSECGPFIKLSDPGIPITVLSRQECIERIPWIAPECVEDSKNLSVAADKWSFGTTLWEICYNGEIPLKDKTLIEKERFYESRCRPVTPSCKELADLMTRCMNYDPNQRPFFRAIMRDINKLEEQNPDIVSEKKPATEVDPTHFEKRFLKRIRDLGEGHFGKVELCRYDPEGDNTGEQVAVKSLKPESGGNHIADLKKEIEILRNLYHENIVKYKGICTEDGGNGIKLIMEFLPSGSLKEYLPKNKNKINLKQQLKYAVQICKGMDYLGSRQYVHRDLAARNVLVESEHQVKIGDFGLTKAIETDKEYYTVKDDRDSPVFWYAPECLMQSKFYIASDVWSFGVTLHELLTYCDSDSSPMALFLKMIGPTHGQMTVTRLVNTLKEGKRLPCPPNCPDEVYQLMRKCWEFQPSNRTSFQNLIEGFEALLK
T5 sequence (P00533 25-1210 T790M/L858R): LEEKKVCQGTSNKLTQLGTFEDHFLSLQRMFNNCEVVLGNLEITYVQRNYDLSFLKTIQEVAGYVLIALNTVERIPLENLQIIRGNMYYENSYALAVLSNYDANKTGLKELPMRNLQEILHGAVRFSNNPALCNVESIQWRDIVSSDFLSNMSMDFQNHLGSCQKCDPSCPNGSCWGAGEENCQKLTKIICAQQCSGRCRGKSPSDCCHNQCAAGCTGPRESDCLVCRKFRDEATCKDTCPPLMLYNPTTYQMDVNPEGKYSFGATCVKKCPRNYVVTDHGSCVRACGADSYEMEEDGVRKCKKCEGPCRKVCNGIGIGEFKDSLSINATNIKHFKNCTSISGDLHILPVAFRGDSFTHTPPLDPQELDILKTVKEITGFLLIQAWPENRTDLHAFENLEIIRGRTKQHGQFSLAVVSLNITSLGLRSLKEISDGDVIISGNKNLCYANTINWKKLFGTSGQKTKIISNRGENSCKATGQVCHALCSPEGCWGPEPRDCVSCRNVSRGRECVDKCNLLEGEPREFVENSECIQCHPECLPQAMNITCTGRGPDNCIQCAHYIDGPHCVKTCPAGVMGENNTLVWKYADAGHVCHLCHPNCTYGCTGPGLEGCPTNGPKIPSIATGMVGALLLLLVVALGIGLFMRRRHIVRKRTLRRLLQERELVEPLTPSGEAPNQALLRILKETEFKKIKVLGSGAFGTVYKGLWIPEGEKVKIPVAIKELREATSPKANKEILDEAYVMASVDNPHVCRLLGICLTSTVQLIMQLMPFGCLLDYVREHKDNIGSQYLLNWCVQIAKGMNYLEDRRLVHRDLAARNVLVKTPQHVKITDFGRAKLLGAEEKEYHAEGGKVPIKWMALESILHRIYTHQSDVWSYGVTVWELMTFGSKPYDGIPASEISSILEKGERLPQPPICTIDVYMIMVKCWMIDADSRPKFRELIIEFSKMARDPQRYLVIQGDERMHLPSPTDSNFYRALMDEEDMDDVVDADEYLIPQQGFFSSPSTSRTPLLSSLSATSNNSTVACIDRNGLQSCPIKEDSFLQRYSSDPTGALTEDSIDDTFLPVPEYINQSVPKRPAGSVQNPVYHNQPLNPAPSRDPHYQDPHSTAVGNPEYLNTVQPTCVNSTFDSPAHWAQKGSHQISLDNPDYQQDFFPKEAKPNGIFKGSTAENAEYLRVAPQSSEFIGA
T6 sequence (P35968 20-1356): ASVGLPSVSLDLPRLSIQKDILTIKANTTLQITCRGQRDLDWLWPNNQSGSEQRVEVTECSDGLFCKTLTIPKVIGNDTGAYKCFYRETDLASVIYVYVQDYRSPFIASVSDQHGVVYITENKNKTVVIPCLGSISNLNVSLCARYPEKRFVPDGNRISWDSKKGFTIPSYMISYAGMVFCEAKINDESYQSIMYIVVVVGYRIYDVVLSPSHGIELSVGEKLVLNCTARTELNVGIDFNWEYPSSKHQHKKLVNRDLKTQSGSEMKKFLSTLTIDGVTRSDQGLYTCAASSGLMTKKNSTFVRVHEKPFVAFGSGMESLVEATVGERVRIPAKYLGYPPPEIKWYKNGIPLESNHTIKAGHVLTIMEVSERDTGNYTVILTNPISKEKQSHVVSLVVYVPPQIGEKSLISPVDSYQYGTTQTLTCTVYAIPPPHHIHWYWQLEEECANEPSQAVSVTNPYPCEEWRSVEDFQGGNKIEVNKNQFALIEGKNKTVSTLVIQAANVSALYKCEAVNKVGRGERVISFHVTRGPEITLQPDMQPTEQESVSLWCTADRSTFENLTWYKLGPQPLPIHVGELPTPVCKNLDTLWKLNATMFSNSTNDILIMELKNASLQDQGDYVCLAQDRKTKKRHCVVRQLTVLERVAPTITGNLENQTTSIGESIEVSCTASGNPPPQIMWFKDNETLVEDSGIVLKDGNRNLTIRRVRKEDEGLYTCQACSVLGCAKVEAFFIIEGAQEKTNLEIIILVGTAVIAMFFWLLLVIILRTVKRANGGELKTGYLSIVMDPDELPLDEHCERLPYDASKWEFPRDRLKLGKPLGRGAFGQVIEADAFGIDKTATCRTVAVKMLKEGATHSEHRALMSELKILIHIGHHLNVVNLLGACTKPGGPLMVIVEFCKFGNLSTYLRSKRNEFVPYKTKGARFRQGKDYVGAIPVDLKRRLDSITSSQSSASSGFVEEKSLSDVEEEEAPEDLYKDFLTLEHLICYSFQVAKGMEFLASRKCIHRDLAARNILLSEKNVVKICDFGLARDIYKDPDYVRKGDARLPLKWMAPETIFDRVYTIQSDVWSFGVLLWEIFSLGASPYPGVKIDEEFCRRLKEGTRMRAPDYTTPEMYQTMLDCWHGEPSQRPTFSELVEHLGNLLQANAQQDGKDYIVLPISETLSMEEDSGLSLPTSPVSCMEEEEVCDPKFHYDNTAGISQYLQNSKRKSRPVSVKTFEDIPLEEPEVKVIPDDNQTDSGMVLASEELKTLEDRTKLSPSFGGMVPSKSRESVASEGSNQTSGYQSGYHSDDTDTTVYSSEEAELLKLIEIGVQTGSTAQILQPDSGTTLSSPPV

Structure (SMILES) | activity at 1 µM (Ab1 (h)) [%] | IC50 (BTK (h)) [nM] | activity at 1 µM (BTK (h)) [%] | IC50 (Flt3 (D835Y) (h)) [nM] | activity at 1 µM (Flt3 (D835Y) (h)) [%] | IC50 (JAK1 (h)) [nM] | IC50 (EGFR (T790M, L858R) (h)) [nM] | IC50 (KDR (h)) [nM] | IC50 (Ret (h)) [nM] | IC50 [1] [nM] | IC50 [2] [nM] | IC50 [3] [nM] | IC50 [4] [nM] | IC50 [5] [nM] | IC50 [6] [nM] | IC50 (Ab1 (h)) [nM]
Nc1cc2cc(c1)Nc1nccc(n1)-c1cccc(c1)COC/C=C/COC2 [XIII-1] | 11 | 157 | 6 | 9 | -1 | 17 | 19 | 50 | 123 |  |  |  |  |  |  | 
O=C(/C=C/CN1CCCC1)Nc1cc2cc(c1)Nc1nccc(n1)-c1cccc(c1)COC/C=C/COC2 [XVI-1] | -1 | 29 | 2 | 3 | -1 | 69 | 10 | 17 | 66 | 326 | 470 | 463 | 143 | 706 | 689 | 
O=C(/C=C/CN1CCOCC1)Nc1cc2cc(c1)Nc1nccc(n1)-c1cccc(c1)COC/C=C/COC2 [XVI-3] | 8 | 40 | 7 | 5 | 1 | 44 | 21 | 21 | 145 | 866 | 2880 | 2040 | 1470 | 1580 | 2480 | 
C/C=C/C(=O)Nc1cc2cc(c1)Nc1nccc(n1)-c1cccc(c1)COC/C=C/COC2 [XVI-4] | 11 | 238 | 9 | 10 | -1 | 44 | 60 |  | 314 |  |  |  |  |  |  | 
C=CC(=O)Nc1cc2cc(c1)Nc1nccc(n1)-c1cccc(c1)COC/C=C/COC2 [XVI-6] | 17 | 348 | 16 | 10 | -1 | 106 | 64 | 61 | 202 |  |  |  |  |  |  | 
CN(C)C/C=C/C(=O)Nc1cc2cc(c1)Nc1nccc(n1)-c1cccc(c1)COC/C=C/COC2 [XVI-8] | 4 | 48 | 9 | 9 | -2 | 262 | 17 | 97 | 79 |  |  |  |  |  |  | 
O=C(O)/C=C/C(=O)Nc1cc2cc(c1)Nc1nccc(n1)-c1cccc(c1)COC/C=C/COC2 [XVI-9] |  |  | 62 | 5 | 1 | 19 |  |  |  |  |  |  |  |  |  | 
O=C(/C=C/C(=O)N1CCOCC1)Nc1cc2cc(c1)Nc1nccc(n1)-c1cccc(c1)COC/C=C/COC2 [XVI-10] | 9 |  | 31 | 4 | 5 | 89 |  | 40 |  |  |  |  |  |  |  | 139
O=C(/C=C/C(=O)N1CCNCC1)Nc1cc2cc(c1)Nc1nccc(n1)-c1cccc(c1)COC/C=C/COC2 [XVI-11] | -1 |  | 18 | 6 | 1 | 167 |  | 189 |  |  |  |  |  |  |  | 34
C1=C/COCc2cccc(c2)-c2ccnc(n2)Nc2cc(cc(OC/C=C/CN3CCCC3)c2)COC/1 [XVI-12] |  |  | 38 | 3 | 7 | 492 |  |  |  |  |  |  |  |  |  | 
CN(C)C/C=C/C(=O)Nc1cc2cc(c1)Nc1nccc(n1)-c1cccc(c1)COC/C=C/CN(C)C2 [XVI-26] | 32 | 1250 | 50 | 17 | 0 | 136 | 164 | 329 | 594 |  |  |  |  |  |  | 
C/C=C/C(=O)Nc1cc2cc(c1)Nc1nccc(n1)-c1cccc(c1)COC/C=C/CN(C)C2 [XVI-28] | 37 | 1470 | 57 | 20 | 1 | 40 | 300 | 76 | 1980 |  |  |  |  |  |  | 
C#CC(=O)Nc1cc2cc(c1)Nc1nccc(n1)-c1cccc(c1)COC/C=C/COC2 [XVII-1] | 1 |  | 8 | 7 | -1 | 33 | 39 |  | 110 |  |  |  |  |  |  | 
